Assay results: PubChem BioAssay AID2790 (The Scripps Research Institute Molecular Screening Center, 2010)
Calls of active or inactive are those of the source.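 The calls were made as follows: active = IC50 at or below 10 micromolar; inactive = IC50 above 10 micromolar.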

These compounds were tested against Bcl-2-like protein 1 (Homo sapiens) (UniProt Q07817) (assay: Bcl-xL inhibitors, concentration-response – biochemical, fluorescence polarization, powder samples, counter-screen for MCL1-BIM inhibitor project, dose response (AID 2790)). Conditions: GST-BCL-XL / FITC-Bim BH3 fluorescence polarization.
Bcl-2-like protein 1 (Homo sapiens), sequence (Q07817 whole entry, looked up): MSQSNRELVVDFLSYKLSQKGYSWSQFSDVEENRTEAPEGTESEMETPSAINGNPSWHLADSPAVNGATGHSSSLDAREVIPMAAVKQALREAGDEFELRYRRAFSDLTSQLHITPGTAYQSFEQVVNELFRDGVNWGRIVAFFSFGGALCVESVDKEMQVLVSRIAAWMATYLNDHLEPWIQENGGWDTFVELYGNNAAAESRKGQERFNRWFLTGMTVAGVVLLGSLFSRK

**Q.** Which IC50 does the source give for CCOc1ccc(NC(=O)c2cccc(-n3cccc3)c2)cc1S(=O)(=O)N1CCOCC1 here?
**A.** Its IC50 is > 109 µM (inactive).

**Q.** COc1ccc(Cc2nnc(NC(=O)Cc3cccs3)s2)cc1OC was tested. Which IC50 did it give?
**A.** The IC50 was > 109 µM (inactive).

**Q.** With COc1ccc(NC(=O)CN(C)C(=O)c2cc3c(s2)CCC3)cc1 as the compound, how does the IC50 read?
**A.** The IC50 was > 109 µM (inactive).

**Q.** With Nc1ccc(C(=O)NN=Cc2cc(N=Nc3cccc4ccccc34)ccc2O)cc1 as the compound, how does the IC50 read?
**A.** Its IC50 is > 109 µM (inactive).

**Q.** O=C(NN=Cc1ccc(-c2ccc(S(=O)(=O)Nc3ncccn3)cc2)o1)c1cc2ccccc2cc1O was tested. Which IC50 did it give?
**A.** The IC50 was > 109 µM (inactive).

**Q.** With COc1ccc(-n2cccc2/C=C2\C(=N)N3N=C(c4ccco4)SC3=NC2=O)cc1 as the compound, how does the IC50 read?
**A.** The IC50 was > 109 µM (inactive).

**Q.** How did the IC50 turn out when c1coc(-c2nc(-c3ccco3)c(-c3ccco3)nc2-c2ccco2)c1 was run?
**A.** Its IC50 is > 109 µM (inactive).

**Q.** Which IC50 does the source give for COC(=O)c1ccccc1NCc1cc(=O)oc2cc(O)c(O)cc12 here?
**A.** The IC50 was > 109 µM (inactive).

**Q.** Which IC50 does the source give for CCc1sc(C(C2C(=O)CC(C)(C)CC2=O)C2C(=O)CC(C)(C)CC2=O)cc1[N+](=O)[O-] here?
**A.** The IC50 was > 109 µM (inactive).

**Q.** O=C1COc2ccc(C(=O)COC(=O)/C=C/c3ccc(Br)o3)cc2N1 was tested. Which IC50 did it give?
**A.** The IC50 was > 109 µM (inactive).

**Q.** Which IC50 does the source give for Cc1cccc(NC(=O)CNC(=O)c2cccc(-n3cccc3)c2)c1C here?
**A.** Its IC50 is > 109 µM (inactive).

**Q.** With C=CCN=c1scc(-c2ccco2)n1/N=C/c1ccc(O)c(O)c1O as the compound, how does the IC50 read?
**A.** The IC50 was > 109 µM (inactive).

**Q.** How did the IC50 turn out when O=C(NN=Cc1cccc(F)c1)c1cc(-c2ccco2)nc2ccccc12 was run?
**A.** The IC50 was > 109 µM (inactive).

**Q.** For C=CCn1c(SCC(=O)c2ccc(O)c(O)c2)nnc1-c1cccnc1, which IC50 is on record?
**A.** The IC50 was “inactive”.

**Q.** Which IC50 does the source give for Cc1ccc(C(=O)O)cc1-c1ccc(/C=C2\SC(=O)N(CC(=O)Nc3ccc4c(c3)OCO4)C2=O)o1 here?
**A.** Its IC50 is > 109 µM (inactive).
